Where a SMILES comes first, the peptide text is derived from it. Bridges are numbered along the chain shown (N, C = ends). [ ]: non-standard residue; d: D form. Nle = CCCC[C@H](N)C(=O)O
Assays:
[1] = target: Rat whole blood (Rattus norvegicus, UniProt P15384); assay type: cell-based; conditions: IL-17A release, thapsigargin, 24 Hr, at least 2 replicates
[2] = target: T1, human Kv1.2 (Homo sapiens, UniProt P16389); assay: cell-based; conditions: ratio of patch clamp IC50 values
T1 construct: expressed in transfected cells; host or cells: CHO
T1 sequence (P16389 whole entry): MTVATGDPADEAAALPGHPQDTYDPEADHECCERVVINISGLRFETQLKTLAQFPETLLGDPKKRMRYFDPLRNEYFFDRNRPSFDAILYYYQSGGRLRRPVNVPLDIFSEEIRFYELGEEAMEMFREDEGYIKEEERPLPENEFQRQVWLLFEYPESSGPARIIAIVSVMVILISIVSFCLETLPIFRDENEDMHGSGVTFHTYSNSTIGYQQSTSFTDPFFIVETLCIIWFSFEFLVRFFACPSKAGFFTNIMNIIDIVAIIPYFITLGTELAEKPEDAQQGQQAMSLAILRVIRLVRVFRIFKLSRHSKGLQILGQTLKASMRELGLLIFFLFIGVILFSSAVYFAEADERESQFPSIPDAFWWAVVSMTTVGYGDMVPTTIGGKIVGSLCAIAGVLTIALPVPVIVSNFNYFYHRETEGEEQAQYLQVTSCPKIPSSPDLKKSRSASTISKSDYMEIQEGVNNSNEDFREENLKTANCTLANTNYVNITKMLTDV

[3] = target: T2, human Kv1.1 (Homo sapiens, UniProt Q09470); assay: cell-based; conditions: ratio of patch clamp IC50 values
T2 construct: expressed in transfected cells; host or cells: CHO
T2 sequence (Q09470 whole entry): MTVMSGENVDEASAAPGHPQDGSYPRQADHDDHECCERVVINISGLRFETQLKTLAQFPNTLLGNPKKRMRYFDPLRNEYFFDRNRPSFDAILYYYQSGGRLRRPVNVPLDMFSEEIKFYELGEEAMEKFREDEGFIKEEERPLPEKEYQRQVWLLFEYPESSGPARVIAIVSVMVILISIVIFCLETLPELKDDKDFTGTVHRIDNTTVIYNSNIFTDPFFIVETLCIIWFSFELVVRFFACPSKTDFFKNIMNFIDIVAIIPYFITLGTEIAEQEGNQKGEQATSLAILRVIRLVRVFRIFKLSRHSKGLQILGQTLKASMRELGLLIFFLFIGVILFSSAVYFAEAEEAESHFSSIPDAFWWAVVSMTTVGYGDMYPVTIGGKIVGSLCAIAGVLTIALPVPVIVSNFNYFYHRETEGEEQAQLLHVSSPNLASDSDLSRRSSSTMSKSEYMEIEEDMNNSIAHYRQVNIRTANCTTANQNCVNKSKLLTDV

[4] = target: T3, human Kv1.6 (Homo sapiens, UniProt P17658); assay: cell-based; conditions: ratio of patch clamp IC50 values
T3 construct: expressed in transfected cells; host or cells: CHO
T3 sequence (P17658 whole entry): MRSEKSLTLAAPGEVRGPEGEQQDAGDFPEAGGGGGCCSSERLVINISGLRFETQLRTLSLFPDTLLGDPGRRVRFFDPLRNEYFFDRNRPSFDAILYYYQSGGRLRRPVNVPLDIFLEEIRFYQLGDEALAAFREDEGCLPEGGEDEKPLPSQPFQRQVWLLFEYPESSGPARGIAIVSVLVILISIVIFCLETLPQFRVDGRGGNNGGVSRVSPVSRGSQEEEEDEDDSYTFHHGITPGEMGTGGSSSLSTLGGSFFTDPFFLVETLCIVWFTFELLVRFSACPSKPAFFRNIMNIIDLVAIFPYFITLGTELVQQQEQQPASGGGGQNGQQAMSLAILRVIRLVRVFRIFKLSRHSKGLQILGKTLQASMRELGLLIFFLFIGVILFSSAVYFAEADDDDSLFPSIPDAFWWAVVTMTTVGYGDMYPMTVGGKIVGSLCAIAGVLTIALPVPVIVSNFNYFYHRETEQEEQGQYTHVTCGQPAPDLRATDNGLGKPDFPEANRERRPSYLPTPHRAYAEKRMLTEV

Rat whole blood, sequence (P15384 whole entry): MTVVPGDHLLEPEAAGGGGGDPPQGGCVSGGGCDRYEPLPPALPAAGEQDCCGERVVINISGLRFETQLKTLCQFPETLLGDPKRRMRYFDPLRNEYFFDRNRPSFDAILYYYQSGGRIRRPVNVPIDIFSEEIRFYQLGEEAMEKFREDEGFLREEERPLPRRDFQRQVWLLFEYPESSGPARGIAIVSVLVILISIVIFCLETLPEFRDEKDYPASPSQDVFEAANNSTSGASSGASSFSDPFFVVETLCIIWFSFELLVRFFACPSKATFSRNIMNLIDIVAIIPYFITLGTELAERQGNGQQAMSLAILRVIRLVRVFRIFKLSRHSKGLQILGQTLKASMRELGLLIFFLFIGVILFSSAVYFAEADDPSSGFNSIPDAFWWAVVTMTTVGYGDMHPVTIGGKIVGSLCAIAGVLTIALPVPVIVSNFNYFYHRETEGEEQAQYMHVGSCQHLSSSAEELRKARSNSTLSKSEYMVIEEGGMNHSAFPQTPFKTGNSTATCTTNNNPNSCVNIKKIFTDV

Compound	IC50 [1] [nM]	Selectivity ratio Kv1.2/Kv1.3 [2]	Selectivity ratio Kv1.1/Kv1.3 [3]	Selectivity ratio Kv1.6/Kv1.3 [4]
CC[C@H](C)[C@@H]1NC(=O)[C@H](C)NC(=O)[C@H](CCCCN)NC(=O)[C@H](CC(C)C)NC(=O)[C@@H]2CSSC[C@@H](C(=O)N[C@@H](Cc3ccc(O)cc3)C(=O)N3CCC[C@H]3C(=O)N[C@@H](CCCNC(=N)N)C(N)=O)NC(=O)[C@H](CCCCN)NC(=O)[C@@H]3CSSC[C@H](NC(=O)[C@H](CCC(=O)O)NC(=O)[C@H](C(C)C)NC(=O)[C@H](CO)NC(=O)[C@H](C)NC(=O)[C@H](CO)NC(=O)[C@@H](NC(=O)[C@H](CCCNC(=N)N)NC(=O)[C@H](CCSC)NC(=O)[C@H](CC(=O)O)NC(=O)[C@H](CCSC)NC(=O)[C@@H](N)CC(N)=O)CSSC[C@H](NC(=O)[C@H](CCCCN)NC(=O)CNC(=O)[C@H](Cc4ccccc4)NC(=O)[C@H]([C@@H](C)CC)NC(=O)[C@H](CO)NC(=O)CNC1=O)C(=O)N[C@@H](CCSC)C(=O)N[C@@H](CC(N)=O)C(=O)N[C@@H](CCCCN)C(=O)N[C@@H](CCCCN)C(=O)N3)C(=O)N[C@@H](CCCCN)C(=O)N[C@@H](CCC(N)=O)C(=O)N[C@@H](CC(C)C)C(=O)N2 [compound 23] (H-NMDMRCSASVECKQLCLKAIGSIFGKCMNKKCKCYPR-NH2; disulfide 6-27, 12-32, 16-34)	3.2	1080	>12700	>12700
CC[C@H](C)[C@@H]1NC(=O)[C@H](C)NC(=O)[C@H](CCCCN)NC(=O)[C@H](CCCCN)NC(=O)[C@@H]2CSSC[C@@H](C(=O)N[C@@H](Cc3ccc(O)cc3)C(=O)N3CCC[C@H]3C(=O)N[C@@H](CCCNC(=N)N)C(N)=O)NC(=O)[C@H](CCCCN)NC(=O)[C@@H]3CSSC[C@H](NC(=O)[C@H](CCC(=O)O)NC(=O)[C@H](C(C)C)NC(=O)[C@H](CO)NC(=O)[C@H](C)NC(=O)[C@H](CO)NC(=O)[C@@H](NC(=O)[C@H](CCCNC(=N)N)NC(=O)[C@H](CCSC)NC(=O)[C@H](CC(=O)O)NC(=O)[C@H](CCSC)NC(=O)[C@@H](N)CC(N)=O)CSSC[C@H](NC(=O)[C@H](CCCCN)NC(=O)CNC(=O)[C@H](Cc4ccccc4)NC(=O)[C@H]([C@@H](C)CC)NC(=O)[C@H](CO)NC(=O)CNC1=O)C(=O)N[C@@H](CCSC)C(=O)N[C@@H](CC(N)=O)C(=O)N[C@@H](CCCCN)C(=O)N[C@@H](CCCCN)C(=O)N3)C(=O)N[C@@H](CCCCN)C(=O)N[C@@H](CCC(N)=O)C(=O)N[C@@H](CCCCN)C(=O)N2 [compound 24] (H-NMDMRCSASVECKQKCKKAIGSIFGKCMNKKCKCYPR-NH2; disulfide 6-27, 12-32, 16-34)	0.56	202	>13500	1955
CC[C@H](C)[C@@H]1NC(=O)[C@H](C)NC(=O)[C@H](CCCCN)NC(=O)[C@H](CC(C)C)NC(=O)[C@@H]2CSSC[C@@H](C(=O)N[C@@H](Cc3ccc(O)cc3)C(=O)N3CCC[C@H]3C(=O)N[C@@H](CCCNC(=N)N)C(N)=O)NC(=O)[C@H](CCCCN)NC(=O)[C@@H]3CSSC[C@H](NC(=O)[C@H](CCC(=O)O)NC(=O)[C@H](C(C)C)NC(=O)[C@H](CO)NC(=O)[C@H](C)NC(=O)[C@H](CO)NC(=O)[C@@H](NC(=O)[C@H](CCCNC(=N)N)NC(=O)[C@H](CCSC)NC(=O)[C@H](CC(=O)O)NC(=O)[C@H](CCSC)NC(=O)[C@@H](N)CC(N)=O)CSSC[C@H](NC(=O)[C@H](CCCCN)NC(=O)CNC(=O)[C@H](Cc4ccccc4)NC(=O)[C@H]([C@@H](C)CC)NC(=O)[C@H](CO)NC(=O)[C@H](CCCNC(=N)N)NC1=O)C(=O)N[C@@H](CCSC)C(=O)N[C@@H](CC(N)=O)C(=O)N[C@@H](CCCCN)C(=O)N[C@@H](CCCCN)C(=O)N3)C(=O)N[C@@H](CCCCN)C(=O)N[C@@H](CCC(N)=O)C(=O)N[C@@H](CCCCN)C(=O)N2 [compound 26] (H-NMDMRCSASVECKQKCLKAIRSIFGKCMNKKCKCYPR-NH2; disulfide 6-27, 12-32, 16-34)	0.82	259	>13700	2851
CC[C@H](C)[C@@H]1NC(=O)[C@H](C)NC(=O)[C@H](CC(C)C)NC(=O)[C@@H]2CSSC[C@@H](C(=O)N[C@@H](Cc3ccc(O)cc3)C(=O)N3CCC[C@H]3C(=O)N[C@@H](CCCNC(=N)N)C(N)=O)NC(=O)[C@H](CCCCN)NC(=O)[C@@H]3CSSC[C@H](NC(=O)[C@H](CCC(=O)O)NC(=O)[C@H](C(C)C)NC(=O)[C@H](CO)NC(=O)[C@H](C)NC(=O)[C@H](CO)NC(=O)[C@@H](NC(=O)[C@H](CCCNC(=N)N)NC(=O)[C@H](CCSC)NC(=O)[C@H](CC(=O)O)NC(=O)[C@H](CCSC)NC(=O)[C@@H](N)CC(N)=O)CSSC[C@H](NC(=O)[C@H](CCCCN)NC(=O)CNC(=O)[C@H](Cc4ccccc4)NC(=O)[C@H]([C@@H](C)CC)NC(=O)[C@H](CO)NC(=O)CNC1=O)C(=O)N[C@@H](CCSC)C(=O)N[C@@H](CC(N)=O)C(=O)N[C@@H](CCCCN)C(=O)N[C@@H](CCCCN)C(=O)N3)C(=O)N[C@@H](CCCCN)C(=O)N[C@@H](CCC(N)=O)C(=O)N[C@@H](CCCCN)C(=O)N2 [compound 58] (H-NMDMRCSASVECKQKCLAIGSIFGKCMNKKCKCYPR-NH2; disulfide 6-26, 12-31, 16-33)	–	121	>1200	>1200
CC[C@H](C)[C@@H]1NC(=O)[C@H](CCCNC(=N)N)NC(=O)[C@H](CCCCN)NC(=O)[C@H](CC(C)C)NC(=O)[C@@H]2CSSC[C@@H](C(=O)N[C@@H](Cc3ccc(O)cc3)C(=O)N3CCC[C@H]3C(=O)N[C@@H](CCCNC(=N)N)C(N)=O)NC(=O)[C@H](CCCCN)NC(=O)[C@@H]3CSSC[C@H](NC(=O)[C@H](CCC(=O)O)NC(=O)[C@H](C(C)C)NC(=O)[C@H](CO)NC(=O)[C@H](C)NC(=O)[C@H](CO)NC(=O)[C@@H](NC(=O)[C@H](CCCNC(=N)N)NC(=O)[C@H](CCSC)NC(=O)[C@H](CC(=O)O)NC(=O)[C@H](CCSC)NC(=O)[C@@H](N)CC(N)=O)CSSC[C@H](NC(=O)[C@H](CCCCN)NC(=O)CNC(=O)[C@H](Cc4ccccc4)NC(=O)[C@H]([C@@H](C)CC)NC(=O)[C@H](CO)NC(=O)CNC1=O)C(=O)N[C@@H](CCSC)C(=O)N[C@@H](CC(N)=O)C(=O)N[C@@H](CCCCN)C(=O)N[C@@H](CCCCN)C(=O)N3)C(=O)N[C@@H](CCCCN)C(=O)N[C@@H](CCC(N)=O)C(=O)N[C@@H](CCCCN)C(=O)N2 [compound 60] (H-NMDMRCSASVECKQKCLKRIGSIFGKCMNKKCKCYPR-NH2; disulfide 6-27, 12-32, 16-34)	–	187	>9900	3062
CC[C@H](C)[C@@H]1NC(=O)[C@H](CO)NC(=O)CNC(=O)[C@H](Cc2ccc(O)cc2)NC(=O)[C@H](C)NC(=O)[C@H](CCCCN)NC(=O)[C@H](CC(C)C)NC(=O)[C@@H]2CSSC[C@@H](C(=O)N[C@@H](Cc3ccc(O)cc3)C(=O)N3CCC[C@H]3C(=O)N[C@@H](CCCNC(=N)N)C(N)=O)NC(=O)[C@H](CCCCN)NC(=O)[C@@H]3CSSC[C@H](NC(=O)[C@H](CCC(=O)O)NC(=O)[C@H](C(C)C)NC(=O)[C@H](CO)NC(=O)[C@H](C)NC(=O)[C@H](CO)NC(=O)[C@@H](NC(=O)[C@H](CCCNC(=N)N)NC(=O)[C@H](CCSC)NC(=O)[C@H](CC(=O)O)NC(=O)[C@H](CCSC)NC(=O)[C@@H](N)CC(N)=O)CSSC[C@H](NC(=O)[C@H](CCCCN)NC(=O)CNC(=O)[C@H](Cc4ccccc4)NC1=O)C(=O)N[C@@H](CCSC)C(=O)N[C@@H](CC(N)=O)C(=O)N[C@@H](CCCCN)C(=O)N[C@@H](CCCCN)C(=O)N3)C(=O)N[C@@H](CCCCN)C(=O)N[C@@H](CCC(N)=O)C(=O)N[C@@H](CCCCN)C(=O)N2 [compound 61] (H-NMDMRCSASVECKQKCLKAYGSIFGKCMNKKCKCYPR-NH2; disulfide 6-27, 12-32, 16-34)	–	426	>8800	>8800
CCCC[C@H](NC(=O)[C@H](CC(=O)O)NC(=O)[C@H](CCCC)NC(=O)[C@@H](N)CO)C(=O)N[C@@H](CCCNC(=N)N)C(=O)N[C@H]1CSSC[C@@H]2NC(=O)[C@H](CCCCN)NC(=O)CNC(=O)[C@H](Cc3ccccc3)NC(=O)[C@H]([C@@H](C)CC)NC(=O)[C@H](CO)NC(=O)CNC(=O)[C@H]([C@@H](C)CC)NC(=O)[C@H](C)NC(=O)[C@H](CCCCN)NC(=O)[C@H](CC(C)C)NC(=O)[C@@H]3CSSC[C@@H](C(=O)N[C@@H](Cc4ccc(O)cc4)C(=O)N4CCC[C@H]4C(=O)N[C@@H](CCCNC(=N)N)C(N)=O)NC(=O)[C@H](CCCCN)NC(=O)[C@H](CSSC[C@H](NC(=O)[C@H](CCC(=O)O)NC(=O)[C@H](C(C)C)NC(=O)[C@H](CO)NC(=O)[C@H](C)NC(=O)[C@H](CO)NC1=O)C(=O)N[C@@H](C)C(=O)N[C@@H](CCC(N)=O)C(=O)N[C@@H](CO)C(=O)N3)NC(=O)[C@H](CCCCN)NC(=O)[C@H](CCCCN)NC(=O)[C@H](CC(N)=O)NC(=O)[C@H](CCSC)NC2=O [compound 78] (H-S[Nle]D[Nle]RCSASVECAQSCLKAIGSIFGKCMNKKCKCYPR-NH2; disulfide 6-27, 12-32, 16-34)	–	5596	>14600	>14600

— patent US20240182531A1, “KV1.3 Blockers” (priority 2021, published 2024)
